Measured values from US9617311B2, “Use of PEDF-derived polypeptides for promoting stem cells proliferation and wound healing” (Mackay Memorial Hospital, priority 2011, dated 2017).

Tests used:
[1] = system: basal cells of the hyper-proliferative epithelium; test: Cell replication at basal layer of HE tissue at day 4 post skin wounding, BrdU immunohistochemistry; assay type: in vivo, C57L/B6 mice; details: day 4 of skin ointment treatment; BrdU i.p. 3 hours before euthanasia; control wound 30.8±8.1%
Excerpt: FIGS. 9A and 9B illustrate histological analysis of cell replication at day 4 post-skin wounding. FIG. 9A provides photographs in which specimens were immunehistologically stained with BrdU to observe DNA replication (deep brown color) and counterstained with hematoxylin to observe nuclei. […] (Original magnification, ×200). FIG. 9B is a histogram illustrating numbers of BrdU-positive cells at basal layer of HE tissue. A labeling index (%) was computed as the number of labeled cells divided by the total number of cells at basal layer of HE tissue. *P<0.05 versus control wound.
2×10^5 limbal cells (the 1st passage) were seeded at a slide coated with FNC COATING MIX® solution (Athena Enzyme Systems, Baltimore, Md.) and incubated with a culture medium for one day. BrdU (final, 10 μM) was added to the culture for 2 hours. After being fixed with 4% paraformaldehyde, cells were exposed to cold methanol for 2 minutes, and then treated with 1 N HCl at RT for 1 hour before performing immunofluorescence. For animal study, BrdU was reconstituted in DMSO as stock (80 mM). 10 μl of BrdU mixed with 90 μl of PBS was intraperitoneally injected into mouse 3 hours prior to euthanasia. DNA synthesis was assessed by BrdU labeling with anti-BrdU antibodies.
To perform full-thickness skin excision, 8- to 10-week-old C57L/B6 mice were respectively anesthetized by an intraperitoneal injection of a mixture of zoletil (6 mg/kg) and xylazine (3 mg/kg). Two full-thickness skin excisional wounds, 4 mm in diameter were made on either side of the dorsal midline using Sklar Tru-Punch disposable biopsy punch (Sklar, West Chester, Pa., USA). In each treatment group (n=6), the skin wound was treated with 25 μl skin ointment (containing 50 μM synthetic peptide and 0.006 μl DMSO vehicle) once daily after the skin scraping. In the control group (n=6), skin wound was treated with 25 μl of skin ointment with equal concentration of DMSO. Each gram of the above skin ointment contains 5 mg neomycin sulfate and 12.5 mg Bacitracin Zinc. Wounds were left uncovered and harvested 4 and 7 days after injury. Mice were housed individually during the healing period.
To investigate whether skin resurfacing process, which involves cell replication, is accelerated by 29-mer, Mo 29-mer, 20-mer, or Mo 20-mer, wounds were treated with skin ointment containing 29-mer, Mo 29-mer, 20-mer, or Mo 20-mer for 4 days, and then mice were intraperitoneally injected with BrdU for further 3 hours before euthanized. […] This observation was consistent with the thicker HE tissue treated with 29-mer or 20-mer.

[2] = system: hair follicle stem cells (HFSCs); test: In vitro HFSC proliferation, BrdU pulse-labeling with Lgr6 immunostaining; assay type: cell-based, Human; details: 50 nM peptide or 4.5 nM PEDF in medium; BrdU 2 hours; control 31.9±5.6%
Protocol: FIG. 5A provides immunofluorescence microscopy photographs and FIG. 5B is a histogram, and together, they illustrate the in vitro proliferation of HFSCs from treatment groups according to one example of the present disclosure. HFSC proliferation was determined by BrdU labeling for 2 hours. HFSCs (Lgr6, green) and BrdU (red) were detected by immunofluorescence microscopy (original magnification, ×1000). Twenty randomly selected fields in each group were photographed, and the percentage of BrdU and Lgr6-double positive cells (pale pink) per total Lgr6-positive cells was calculated. *P<0.001 versus untreated cells.
Human hair follicles were collected from hairs of healthy donors. The follicles were dissected with tweezers under microscope and most of adipose and connective tissue was removed. The bulge region of hair follicle under the sebaceous gland was cut and then bulge fragments (including central isthmus) were transferred into a 35-mm dish containing 1 ml of collagenase A (1 mg/ml; Roche) and incubated for 1.5 hours at 37° C. to digest the collagen capsule. Subsequently, the bulge fragments were transferred into a fresh cell culture dish containing dispase II (2.4 U/ml)/0.05% trypsin and further incubated for 1.5 hours at 37° C. to obtain a single cell suspension.
After mechanical dissection and enzymatic digestion, the suspended bulge cells isolated from five bulge fragments were seeded into a well of 12-well culture plate and incubated with the basal medium for 5 days to facilitate cell adhesion. The basal medium contains four parts Gibco calcium-free Dulbecco's modified Eagle's medium (DMEM) and one part Ham's F12 medium (calcium concentration reached about 0.25 mM) and supplemented with 10% FBS, 10 ng/ml human epidermal growth factor, 500 mg/I L-glutamine, 0.2% bovine pituitary extract, […] hydrocortisone, 1% ITSE as well as antibiotic-antimicotic solutions. Cultivation method was similar to that of Blazejewska et al. (Stem Cells 2009; 27:642). After 5 days of incubation, cells were cultured in the serum-free basal medium or basal medium containing 4.5 nM PEDF, 50 nM 29-mer, or 50 nM 20-mer, until near confluence (about 2 weeks; passage 0). The medium was changed every 2 to 3 days. The bulge cells were co-cultured with 3T3 fibroblast feeder cells. For passage, near-confluent cells were harvested by enzymatic treatment (i.e., 0.25% trypsin) for 5 min at 37° C. Approximately 1×10^5 human bulge cells were transferred to a new dish and allowed to grow for 14 days to near confluence (passage 1). […]

Sequence | BrdU-positive cells at basal layer of HE tissue, labeling index [1] [%] | percentage of BrdU and Lgr6-double positive cells per total Lgr6-positive cells [2] [%]
SLGAEHRTESVIHRALYYDL [Mo 20-mer, synthetic peptide derived from mouse PEDF] | 49.2±4.3 | 
SLGAEHRTESVIHRALYYDLITNPDIHST [Mo 29-mer, synthetic peptide derived from mouse PEDF] | 52.5±2.5 | 
SLGAEQRTESIIHRALYYDLISSPDIHGT [29-mer, short synthetic PEDF peptide derived from the 39-mer] | 47.9±5.0 | 86.2±3.9
EQRTESIIHRALYYDLIS [18-mer] |  | 30.1±6.3
SLGAEQRTESIIHRALYYDL [20-mer, synthetic peptide identical to residues 11-30 of the 39-mer] | 53.1±6.5 | 79.5±2.6
